Experimental data as given in US9156860B2, “Boron-containing small molecules” (Anacor Pharmaceuticals, Inc., priority 2011, dated 2015).

Tests used:
[1] = test system: Dermacentor variabilis tick nymphs; assay: Efficacy against nymphal-stage American dog ticks on rats; format: in vivo
Method: Evaluations were conducted using a modified version of the assay as described in Gutierrez et al., J. Med. Entomol. 43(3): 526-532 (2006). This assay may be modified by simply using different tick species (the reference describes Amblyomma americanum ticks), such as Dermacentor variabilis or Rhipicephalus sanguineus ticks, as well as different life-stages (larval, nymphal or adult). Further, the reference describes using topical application methods, but oral, transdermal and subcutaneous injection routes of administration may be used.
In these studies, adult male or female rats, approximately 300 grams in size, were randomly assigned to a treatment group or a control (untreated negative control or fipronil positive control) group. Each group consisted of three (3) to five (5) rats. […] On Day 2, approximately forty-eight (48) hours after treatment, live and dead ticks were removed from animals and counted.
Live tick counts were transformed using the natural logarithm transformation plus one (Ln count+1); addition of one to each count served to adjust for counts that were zero. […] GM percent efficacy of treatments was calculated using the following formula:
Enantiomers were evaluated for activity against American dog tick (Dermacentor variabilis) nymphs on rats. […] On Day 2, approximately forty-eight (48) hours after treatment, live and dead ticks were removed from animals and counted. […]

[2] = test system: Lone star tick larvae (Amblyomma americanum); assay: Larval immersion microassay against larval-stage Lone star ticks; details: for mortality at 300 µM: Amblyomma americanum, 24 h, read-out: activity (percent larval mortality)
Method: The larval immersion microassay was conducted as described in detail in White, et al., J. Med. Entomol. […] Compounds of the invention were formulated in dimethylsulfoxide (DMSO) to prepare a stock solution at a concentration of at least 10 mM. […] Approximately 30-50 Lone star tick larvae (Amblyomma americanum) were submerged into each well containing compounds. After a 30 minute immersion period, larvae were removed with a wide-bore pipette tip in 0.05 ml of fluid, dispensed into a commercial paper tissue biopsy bag which was sealed at the top with a plastic dialysis clip, inverted and allowed to air dry for 60 minutes. Bags containing larvae were then incubated at approximately 27 degrees Celsius and >90% relative humidity. After 24 hours, bags were opened, live and dead larvae were counted and percent larval mortality was calculated.
7 contains one chiral center, and is therefore a racemic mixture comprised of approximately 50% R- and 50% S-enantiomer. In vitro and surrogate animal (rat) studies were conducted to evaluate the biological activity of the R- and S-enantiomers of 7. For the in vitro study, larvae of the Lone star tick (Amblyomma americanum) were exposed to 17 (S-enantiomer) and 18 (R-enantiomer) using the larval immersion microassay at a concentration of no greater than 0.3 mM. Following exposure, larvae were removed, transferred to a tissue biopsy bag and incubated at approximately 27 degrees Celsius and >90% relative humidity. After 24 hours, biopsy bags were opened and the numbers of live and dead larvae were determined.

[3] = Clinical signs / tolerability in rats; format: in vivo; details: oral ≦5 mg/kg, Example 8
[4] = Tolerability of oral treatment in dogs; format: in vivo, beagle dogs
Method: The therapeutic (knockdown) and residual efficacy of 7, administered orally at a point dosages of 5 and 25 mg/kg bodyweight, was evaluated against adult American dog tick (D. variabilis) and cat flea (C. felis) infestations on dogs. Sixteen (16) male and female beagle dogs were allocated to one of four treatment groups: Untreated control group (n=4 dogs); 7, 5 mg/kg liquid oral dosage form (n=4 dogs); 7, 25 mg/kg liquid oral dosage form (n=4 dogs); and 7, 25 mg/kg solid oral dosage form. Liquid dosage forms were prepared by dissolving 7 in a solution of 55% polyethylene glycol-300, 35% propylene glycol and 10% water at 25 mg/ml. Solid oral dosage form was prepared by thoroughly mixing 7 with microcrystalline cellulose and croscarmellose sodium (50:47:3, w/w) and placing into size 00 gelatin capsules. On Day 0, all dogs were orally administered 7 at the prescribed point dosages. Twenty-four (24) hours before treatment (Day −1), all dogs were infested with approximately 50 unfed, adult-stage American dog ticks (D. variabilis; approximately 50% male and 50% female). On Day 2, approximately 48 hours after treatment, ticks were removed and counts were conducted to determine the number and life-status classification of ticks present on all dogs (normal, moribund or dead; attached or detached). For all groups, dogs were re-infested with approximately 50 unfed, adult D. variabilis ticks on Days 5 and 12, with tick classification, counts and removal on Days 7 and 14 (approximately 48 hours after each infestation). For negative control and 7 (25 mg/kg solid oral dosage form) groups, dogs were re-infested with approximately 50 unfed, adult D. variabilis ticks on Days 19 and 28, with tick classification, counts and removal on Days 21 and 30. Immediately following removal of ticks on Day 30, dogs in the negative control and 7 (25 mg/kg solid oral dosage form) groups were infested with approximately 100 unfed, adult cat fleas (C. felis). Flea counts were conducted approximately 48 hours later, on Day 32.
(§1) The therapeutic (knockdown) and residual efficacy of 7 and 8, each administered orally at a point dose of either 25 mg/kg or 50 mg/kg bodyweight, was evaluated against adult tick (Dermacentor variabilis and Rhipicephalus sanguineus) infestations on dogs. Twenty (20) male and female beagle dogs were allocated to one of five treatment groups, four (4) dogs per group: Untreated control; 7, 25 mg/kg; 7, 50 mg/kg; 8, 25 mg/kg; and 8, 50 mg/kg. On Day −1, all dogs were infested with approximately 50 unfed, adult D. variabilis ticks. On Day 0, dogs were orally administered gelatin capsules containing either 7 or 8 (50% technical active, 47% microcrystalline cellulose and 3% croscarmellose sodium, w/w) so as to achieve the desired point dosages. Ticks were counted and classified on all dogs, but not removed, on Day 1 (approximately 24 hours after treatment). On Day 2, approximately 48 hours after treatment, ticks were counted, classified and removed. Dogs were re-infested with the same number of D. variabilis ticks on Days 5, 12 and 19 with corresponding 48 hour post-infestation tick counts on Days 7, 14 and 21. Dogs were infested with approximately 50 unfed, adult brown dog ticks (Rhipicephalus sanguineus; approximately 50% male and 50% female) on Days 15 and 28, with corresponding 48 hour post-infestation tick counts on Days 17 and 30. GM percent efficacy of treatments against both tick species was calculated using the following formula: […]
The efficacy of 7, administered orally at a point dose of 25 mg/kg bodyweight, was evaluated against adult tick (Dermacentor variabilis) infestations. Twelve (12) male and female beagle dogs were allocated to three treatment groups: Untreated, negative control A; 7 group B; and 7 group C (n=4 dogs per group). Dogs were infested with approximately 50 unfed, adult D. variabilis ticks on Days −1, 5, 12, 19 and 28. […]

[5] = test system: cat flea (Ctenocephalides felis); assay: Example 9: efficacy against cat flea infestations on dogs; format: in vivo; details: 50 mg/kg oral, Day 32
Method: (§2) The therapeutic (knockdown) and residual efficacy of 17, administered orally at a point dose of 50 mg/kg bodyweight, was evaluated against adult tick (Dermacentor variabilis and Rhipicephalus sanguineus) and adult cat flea (Ctenocephalides felis) infestations on dogs. Eight (8) male and female beagle dogs were allocated to either an untreated, negative control group or 17 group (n=4 dogs per group). Dogs were infested with approximately 50 unfed, adult D. variabilis ticks on Days −1, 5, 12, 19, and 28. On Day 0, dogs were orally administered gelatin capsules containing 17 (50% technical active, 47% microcrystalline cellulose and 3% croscarmellose sodium, w/w) at a point dose of 50 mg/kg. D. variabilis tick counts and classification were conducted on Day 1 (thumb count, approximately 24 hours after treatment) and Days 2, 7, 14, 21 and 30 (approximately 48 hours after treatment). Following removal of D. variabilis ticks on Day 30, all dogs were co-infested with approximately 50 unfed, adult brown dog ticks (R. sanguineus) and approximately 100 unfed, adult cat fleas (C. felis). Brown dog tick and cat flea counts were conducted on Day 32 (approximately 48 hours after infestation). GM percent efficacy of treatments against both tick species and fleas was calculated using the following formula: […]

[6] = test system: brown dog tick (Rhipicephalus sanguineus); assay: Example 9: efficacy against brown dog tick infestations on dogs; format: in vivo; details: 50 mg/kg oral, Day 32
Method: as §2

[7] = test system: adult American dog tick (Dermacentor variabilis); assay: Example 9: efficacy against adult American dog tick infestations on dogs; format: in vivo; details: 50 mg/kg oral
Method: as §2

[8] = test system: adult American dog tick (Dermacentor variabilis); assay: Example 5: efficacy against adult American dog tick infestations on dogs; format: in vivo
Method: as §1

[9] = test system: brown dog tick (Rhipicephalus sanguineus); assay: Example 5: efficacy against brown dog tick infestations on dogs; format: in vivo
Method: as §1

## CC1(C)OB(O)c2ccc(C3=NO[C@](c4cc(Cl)c(Cl)c(Cl)c4)(C(F)(F)F)C3)cc21 [Compound 18, (R)-3,3-Dimethyl-5-(5-(3,4,5-trichlorophenyl)-5-(trifluoromethyl)-4,5-dihydroisoxazol-3-yl)benzo[c][1,2]oxaborol-1(3H)-ol]
[1]; oral point doses of ≦5 mg/kg, D. variabilis nymphs, 48 hours after treatment, 5 mg/kg
  % Efficacy at Dose of ≦5 mg/kg: 10.7%
[2]; 0.3 mM, A. americanum larvae, counted after 24 hours
  In vitro activity at 0.3 mM: 0.0%
[3]
  tolerability: well tolerated

## CC1(C)OB(O)c2ccc(C3=NO[C@@](c4cc(Cl)c(Cl)c(Cl)c4)(C(F)(F)F)C3)cc21 [Compound 17, (S)-3,3-Dimethyl-5-(5-(3,4,5-trichlorophenyl)-5-(trifluoromethyl)-4,5-dihydroisoxazol-3-yl)benzo[c][1,2]oxaborol-1(3H)-ol]
[4]; oral 50 mg/kg, Example 9
  tolerability: well tolerated
[5]
  Geometric mean group live flea count: 0.0
[6]
  Geometric mean group live tick count: 1.9
[2]
  mortality at 300 µM: ≥ 80%
[7]; Day 1
  Geometric mean group live tick count: 0.7
[7]; Day 2
  Geometric mean group live tick count: 0.0
[7]; Day 7
  % efficacy: (100) %
  Geometric mean group live tick count: 0.0
[7]; Day 14
  % efficacy: (96.7) %
  Geometric mean group live tick count: 1.2
[7]; Day 21
  % efficacy: (100) %
  Geometric mean group live tick count: 0.0
[7]; Day 30
  Geometric mean group live tick count: 1.9
[7]; through Day 21
  residual efficacy: 97-100%
[3]
  tolerability: well tolerated

## CC1(C)OB(O)c2ccc(C3=NOC(c4cc(Cl)c(F)c(Cl)c4)(C(F)(F)F)C3)cc21 (stereo not shown) [Compound 8, 5-(5-(3,5-dichloro-4-fluorophenyl)-5-(trifluoromethyl)-4,5-dihydroisoxazol-3-yl)-3,3-dimethyl-benzo[c][1,2]oxaborol-1(3H)-ol]
[4]; oral 25 or 50 mg/kg, Example 5
  tolerability: well tolerated
[8]; 25 mg/kg oral capsule, Day 1
  % efficacy: (81.0) %
  Geometric mean group live tick count: 2.0
[8]; 25 mg/kg oral capsule, Day 2
  Geometric mean group live tick count: 0.0
[8]; 25 mg/kg oral capsule, Day 7
  Geometric mean group live tick count: 1.5
[8]; 25 mg/kg oral capsule, Day 14
  % efficacy: (85.0) %
  Geometric mean group live tick count: 2.5
[8]; 25 mg/kg oral capsule, Day 21
  % efficacy: (79.3) %
  Geometric mean group live tick count: 3.4
[8]; 50 mg/kg oral capsule, Day 1
  % efficacy: (80.9) %
  Geometric mean group live tick count: 2.0
[8]; 50 mg/kg oral capsule, Day 2
  Geometric mean group live tick count: 0.0
[8]; 50 mg/kg oral capsule, Day 7
  Geometric mean group live tick count: 0.6
[8]; 50 mg/kg oral capsule, Day 14
  % efficacy: (80.4) %
  Geometric mean group live tick count: 3.2
[8]; 50 mg/kg oral capsule, Day 21
  % efficacy: (75.1) %
  Geometric mean group live tick count: 4.0
[9]; 25 mg/kg oral capsule, Day 17
  % efficacy: (73.4) %
  Geometric mean group live tick count: 7.2
[9]; 50 mg/kg oral capsule, Day 17
  % efficacy: (80.2) %
  Geometric mean group live tick count: 5.4
[9]; 50 mg/kg oral capsule, Day 30
  % efficacy: (42.1) %
  Geometric mean group live tick count: 21.5
[2]
  mortality at 300 µM: ≥ 80%

## N#Cc1nn(-c2c(Cl)cc(C(F)(F)F)cc2Cl)c(N)c1[S+]([O-])C(F)(F)F (stereo not shown) [Fipronil, reference compound]
[1]; positive control, oral 10 mg/kg bodyweight, all studies
  efficacy (% reduction in live tick counts): > 95%
